# Measurements from US5880145A, “Class of benzoporphyrin derivative photoactive compounds” (The University of British Columbia, priority 1997, dated 1999).
# Where two headings read alike, the source gives them in different places.
# Tests used:
# [1] = tested on: Murine leukemia cells (L1210); assay: Photosensitization of cells in vitro (broad spectrum light 9 j/cm^2; MTT cell viability); assay type: cell-based; settings: for IC50: Mus musculus, L1210, light or radiation study, 20 h, 1 hour incubation, light 9 j/cm^2, viability 20 hours later, read-out: LD50 (dose causing 50% cell kill)
# Description: Murine leukemia cells (L1210) were incubated in suitable buffer with and without serum in various amounts of the drug B3 for 1 hour. After removal of the drug, the cells were exposed to broad spectrum light at 9 j/cm^2. Cell viability was determined 20 hours later by the MTT colorimetric assay. Results are presented in FIGS. 2A and 2B as % cell kill for cells exposed to light only.
# [2] = tested on: M1 (rhabdomyosarcoma) tumor-bearing mice; assay: Selectivity in vivo: biodistribution (tumor:tissue ratios)
# Description: Mice (normal, healthy and M1-tumor-bearing) were injected intravenously at 4 mg/kg with B3 formulated in aqueous solution containing DMSO. At various times post B3 administration, the animals were sacrificed and B3 content in various tissues was determined in tissue extracts by fluorescence as described above. Biodistribution data of B3 (tumor:tissue ratios) obtained in M1 (rhabdomyosarcoma) tumor-bearing mice were also evaluated at various times. Within the first hour post intravenous administration of 4 mg/kg B3, tumor:tissue ratios for the muscle and skin were 1.5-2.0 and 3.1-3.9, respectively. Lymph nodes gave ratios of 0.7. […] Since this preferential accumulation was observed shortly after B3 administration, this photosensitizer can be activated with light shortly after its injection, which is convenient in clinical use.
# [3] = Tissue distribution and clearance in vivo; settings: mice, intravenous 4 mg/kg
# Description: Mice (normal, healthy and M1-tumor-bearing) were injected intravenously at 4 mg/kg with B3 formulated in aqueous solution containing DMSO. At various times post B3 administration, the animals were sacrificed and B3 content in various tissues was determined in tissue extracts by fluorescence as described above.
# [4] = tested on: L1210 cells; assay: Release/retention of B3 by cells in vitro; assay type: cell-based, Murine; settings: after 1 hour incubation at 3 μg/ml; drug-free medium with 10% serum
# Description: Release/retention of B3 by cells in vitro: L1210 cells were incubated for 1 hour with B3 at 3 μg/ml in the presence of 10% serum, then washed and placed in drug-free medium containing 10% serum. At various times duplicate aliquots were evaluated for cell content of B3 as described above.
# [5] = tested on: L1210 cells; assay: Uptake of B3 by cells in vitro; assay type: cell-based, Murine; settings: 3 μg/ml, 10% serum
# Description: Uptake of B3 by cells in vitro: L1210 cells (5×10^6 /vial) were incubated in the presence of 10% serum with B3 at 3 μg/ml for times up to 100 minutes. At various times during incubation, duplicate vials were pulled out and the cells, following washing, were lysed and the amount of B3 in the extract determined by fluorescence in the presence of 1% Triton X-100.
# [6] = within first hour post intravenous 4 mg/kg
structure (smiles),measurement,setting,value
C=Cc1c(C)c2cc3nc(cc4[nH]c(cc5nc(cc1[nH]2)[C@@]1(C)C5=CC=C(C(=O)O)[C@H]1C(=O)OC)c(C)c4CCC(=O)OC)C(CCC(=O)OC)=C3C (relative stereo) [Example B3],IC50,[1]; in the absence of 10% serum,0.007 µg/mL
same,IC50,[1]; in the presence of 10% serum,0.035 µg/mL
same,photosensitization of cells (in words),[1]; with and without serum,very potent photosensitizer of cells and maintains this property in the presence of serum
same,accumulation in tumor and other rapidly proliferating tissues versus normal tissues (in words),[2]; shortly after intravenous 4 mg/kg,"preferential accumulation of B3 in tumor and other rapidly proliferating tissues (lymph nodes) in contrast to normal, nonproliferating tissues"
same,"tumor:tissue ratio, lymph nodes",[2]; [6],0.7
same,"tumor:tissue ratio, muscle",[2]; [6],1.5-2.0
same,"tumor:tissue ratio, skin",[2]; [6],3.1-3.9
same,pharmacokinetics in vivo (in words),[3],very rapid pharmacokinetics in vivo
same,time after which drug was cleared from tissues tested,[3]; aqueous solution containing DMSO,about 5 minutes
same,time after which release from cells is rapid and almost complete,[4],~30 min
same,time to reach maximum concentrations in cells (uptake),[5],≤ 20 min
same,cellular pharmacokinetics in vitro (in words),"[5]; uptake and release, L1210 cells",very rapid pharmacokinetics in vitro
